# Target: T1, Human M4 (Homo sapiens, UniProt P08173)
# T1 construct: expressed in transfected cells
# T1 sequence (P08173 1-479): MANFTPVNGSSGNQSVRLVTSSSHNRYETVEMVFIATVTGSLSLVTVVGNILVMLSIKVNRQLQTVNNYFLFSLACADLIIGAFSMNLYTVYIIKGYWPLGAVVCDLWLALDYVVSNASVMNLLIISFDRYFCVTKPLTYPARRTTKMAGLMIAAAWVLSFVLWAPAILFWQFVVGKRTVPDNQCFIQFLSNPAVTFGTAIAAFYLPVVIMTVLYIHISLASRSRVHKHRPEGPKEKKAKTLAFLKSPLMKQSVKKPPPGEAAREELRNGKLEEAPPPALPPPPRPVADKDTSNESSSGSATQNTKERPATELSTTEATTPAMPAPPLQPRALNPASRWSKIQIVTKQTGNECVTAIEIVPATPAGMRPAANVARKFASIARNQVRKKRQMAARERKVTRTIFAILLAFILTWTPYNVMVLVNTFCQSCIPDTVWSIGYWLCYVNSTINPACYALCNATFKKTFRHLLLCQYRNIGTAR
# Test: mAChR M4 cell-based functional assay (calcium flux, potentiation of EC20 acetylcholine response), hM4-Gqi5 CHO-K1 cells
# Conditions: for Emax at 30 µM: CHO-K1, % ACh maximum at 30 μM, human M4, read-out: Emax; for EC50: hM4-Gqi5 CHO-K1 cells, calcium flux, PAM of EC20 acetylcholine, read-out: Human M4 EC50
# Method in brief: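 Positive allosteric modulation was scored as a concentration-dependent rise in the response to an EC20 dose of acetylcholine, added 144 s after the compound. Human M4-Gqi5 CHO-K1 cells carried Fluo-4 dye, and compounds ran as 11-point, 3-fold dilution series. EC50 and Emax came from four-parameter logistic fits of the FDSS fluorescence-ratio traces.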
Compound,Emax at 30 µM,EC50
"Cc1c(N2CCc3ncc(-c4cncs4)cc3C2)nn2c(C)nnc2c1C [Compound 90, 5-[6-(3,7,8-trimethyl-[1,2,4]triazolo[4,3-b]pyridazin-6-yl)-7,8-dihydro-5H-1,6-naphthyridin-3-yl]thiazole]",101%,269 nM
"Cc1c(N2CCc3ncc(Nc4cc(F)cc(F)c4F)cc3C2)nn2c(C(F)(F)F)nnc2c1C [Compound 91, 6-[7,8-dimethyl-3-(trifluoromethyl)-[1,2,4]triazolo[4,3-b]pyridazin-6-yl]-N-(2,3,5-trifluorophenyl)-7,8-dihydro-5H-1,6-naphthyridin-3-amine]",106%,1790 nM
"Cc1noc(C)c1-c1cnc2c(c1)CN(c1nn3c(C(F)(F)F)nnc3c(C)c1C)CC2 [Compound 92, 4-[6-[7,8-dimethyl-3-(trifluoromethyl)-[1,2,4]triazolo[4,3-b]pyridazin-6-yl]-7,8-dihydro-5H-1,6-naphthyridin-3-yl]-3,5-dimethyl-isoxazole]",79%,199 nM
"Cc1nn(C)c(C)c1-c1cnc2c(c1)CN(c1nn3c(C(F)(F)F)nnc3c(C)c1C)CC2 [Compound 93, 6-[7,8-dimethyl-3-(trifluoromethyl)-[1,2,4]triazolo[4,3-b]pyridazin-6-yl]-3-(1,3,5-trimethylpyrazol-4-yl)-7,8-dihydro-5H-1,6-naphthyridine]",93%,173 nM
"Cc1nn(C)cc1-c1cnc2c(c1)CN(c1nn3c(C(F)(F)F)nnc3c(C)c1C)CC2 [Compound 94, 3-(1,3-dimethylpyrazol-4-yl)-6-[7,8-dimethyl-3-(trifluoromethyl)-[1,2,4]triazolo[4,3-b]pyridazin-6-yl]-7,8-dihydro-5H-1,6-naphthyridine]",100%,175 nM
"Cc1c(N2CCc3ncc(-c4cnn(CC5CC5)c4)cc3C2)nn2c(C(F)(F)F)nnc2c1C [Compound 95, 3-[1-(cyclopropylmethyl)pyrazol-4-yl]-6-[7,8-dimethyl-3-(trifluoromethyl)-[1,2,4]triazolo[4,3-b]pyridazin-6-yl]-7,8-dihydro-5H-1,6-naphthyridine]",90%,496 nM
"Cc1c(N2CCc3ncc(-c4cncs4)cc3C2)nn2c(C(F)(F)F)nnc2c1C [Compound 96, 5-[6-[7,8-dimethyl-3-(trifluoromethyl)-[1,2,4]triazolo[4,3-b]pyridazin-6-yl]-7,8-dihydro-5H-1,6-naphthyridin-3-yl]thiazole]",97%,106 nM
"Cc1c(N2CCc3ncc(-c4cnn(C5CCCC5)c4)cc3C2)nn2cnnc2c1C [Compound 97, 3-(1-cyclopentylpyrazol-4-yl)-6-(7,8-dimethyl-[1,2,4]triazolo[4,3-b]pyridazin-6-yl)-7,8-dihydro-5H-1,6-naphthyridine]",87%,198 nM
"Cc1c(N2CCc3ncc(-c4cnn(CC(F)(F)F)c4)cc3C2)nn2cnnc2c1C [Compound 98, 6-(7,8-dimethyl-[1,2,4]triazolo[4,3-b]pyridazin-6-yl)-3-[1-(2,2,2-trifluoroethyl)pyrazol-4-yl]-7,8-dihydro-5H-1,6-naphthyridine]",102%,332 nM
"Cc1c(N2CCc3ncc(-c4cnn(C5CCC5)c4)cc3C2)nn2cnnc2c1C [Compound 99, 3-(1-cyclobutylpyrazol-4-yl)-6-(7,8-dimethyl-[1,2,4]triazolo[4,3-b]pyridazin-6-yl)-7,8-dihydro-5H-1,6-naphthyridine]",95%,276 nM
"CCn1cc(-c2cnc3c(c2)CN(c2nn4cnnc4c(C)c2C)CC3)cn1 [Compound 100, 6-(7,8-dimethyl-[1,2,4]triazolo[4,3-b]pyridazin-6-yl)-3-(1-ethylpyrazol-4-yl)-7,8-dihydro-5H-1,6-naphthyridine]",101%,249 nM
"Cc1c(N2CCc3ncc(-c4cc[nH]c4)cc3C2)nn2cnnc2c1C [Compound 101, 6-(7,8-dimethyl-[1,2,4]triazolo[4,3-b]pyridazin-6-yl)-3-(1H-pyrrol-3-yl)-7,8-dihydro-5H-1,6-naphthyridine]",98%,389 nM
"Cc1ccncc1-c1cnc2c(c1)CN(c1nn3cnnc3c(C)c1C)CC2 [Compound 102, 6-(7,8-dimethyl-[1,2,4]triazolo[4,3-b]pyridazin-6-yl)-3-(4-methyl-3-pyridyl)-7,8-dihydro-5H-1,6-naphthyridine]",94%,105 nM
"Cc1cc2nncn2nc1N1CCc2ncc(-c3cncs3)cc2C1 [Compound 103, 5-[6-(7-methyl-[1,2,4]triazolo[4,3-b]pyridazin-6-yl)-7,8-dihydro-5H-1,6-naphthyridin-3-yl]thiazole]",97%,232 nM
"Cc1cc2nncn2nc1N1CCc2ncc(-c3c(C)nn(C)c3C)cc2C1 [Compound 104, 6-(7-methyl-[1,2,4]triazolo[4,3-b]pyridazin-6-yl)-3-(1,3,5-trimethylpyrazol-4-yl)-7,8-dihydro-5H-1,6-naphthyridine]",91%,398 nM
"Cc1cc2nncn2nc1N1CCc2ncc(-c3c(C)noc3C)cc2C1 [Compound 105, 3,5-dimethyl-4-[6-(7-methyl-[1,2,4]triazolo[4,3-b]pyridazin-6-yl)-7,8-dihydro-5H-1,6-naphthyridin-3-yl]isoxazole]",86%,325 nM
"Cc1cc2nncn2nc1N1CCc2ncc(-c3cnn(C4CCCCC4)c3)cc2C1 [Compound 106, 3-(1-cyclohexylpyrazol-4-yl)-6-(7-methyl-[1,2,4]triazolo[4,3-b]pyridazin-6-yl)-7,8-dihydro-5H-1,6-naphthyridine]",59%,234 nM
"Cc1cc2nccn2nc1N1CCc2ncc(-c3cncs3)cc2C1 [Compound 107, 5-[6-(7-methylimidazo[1,2-b]pyridazin-6-yl)-7,8-dihydro-5H-1,6-naphthyridin-3-yl]thiazole]",80%,113 nM
"Cc1cc2nccn2nc1N1CCc2ncc(-c3cn(C)nc3C)cc2C1 [Compound 108, 3-(1,3-dimethylpyrazol-4-yl)-6-(7-methylimidazo[1,2-b]pyridazin-6-yl)-7,8-dihydro-5H-1,6-naphthyridine]",85%,399 nM
"Cc1cc2nccn2nc1N1CCc2ncc(-c3c(C)nn(C)c3C)cc2C1 [Compound 109, 6-(7-methylimidazo[1,2-b]pyridazin-6-yl)-3-(1,3,5-trimethylpyrazol-4-yl)-7,8-dihydro-5H-1,6-naphthyridine]",81%,450 nM
"Cc1cc2nccn2nc1N1CCc2ncc(-c3c(C)noc3C)cc2C1 [Compound 110, 3,5-dimethyl-4-[6-(7-methylimidazo[1,2-b]pyridazin-6-yl)-7,8-dihydro-5H-1,6-naphthyridin-3-yl]isoxazole]",62%,236 nM
"Cc1cc2nccn2nc1N1CCc2ncc(-c3ccn(C)n3)cc2C1 [Compound 111, 6-(7-methylimidazo[1,2-b]pyridazin-6-yl)-3-(1-methylpyrazol-3-yl)-7,8-dihydro-5H-1,6-naphthyridine]",69%,1180 nM
"Cc1c(N2CCc3ncc(-c4cnn(C)c4)cc3C2)nn2cnnc2c1C [Compound 112, 6-(7,8-dimethyl-[1,2,4]triazolo[4,3-b]pyridazin-6-yl)-3-(1-methylpyrazol-4-yl)-7,8-dihydro-5H-1,6-naphthyridine]",101%,124 nM
"Cc1cc2nncn2nc1N1CCc2ncc(-c3cn(C)nc3C)cc2C1 [Compound 113, 3-(1,3-dimethylpyrazol-4-yl)-6-(7-methyl-[1,2,4]triazolo[4,3-b]pyridazin-6-yl)-7,8-dihydro-5H-1,6-naphthyridine]",97%,330 nM
"Cc1cc2nncn2nc1N1CCc2ncc(-c3ccn(C)n3)cc2C1 [Compound 114, 3-(1-methylpyrazol-3-yl)-6-(7-methyl-[1,2,4]triazolo[4,3-b]pyridazin-6-yl)-7,8-dihydro-5H-1,6-naphthyridine]",88%,707 nM
"Cc1c(N2CCc3ncc(C(=O)NCc4ccc(C(C)(C)O)cc4)cc3C2)nn2cnnc2c1C [Compound 115, 6-(7,8-dimethyl-[1,2,4]triazolo[4,3-b]pyridazin-6-yl)-N-[[4-(1-hydroxy-1-methyl-ethyl)phenyl]methyl]-7,8-dihydro-5H-1,6-naphthyridine-3-carboxamide]",73%,4180 nM
"Cc1c(N2CCc3ncc(C(=O)NCC4CCCOC4)cc3C2)nn2cnnc2c1C (stereo not drawn) [Compound 116, 6-(7,8-dimethyl-[1,2,4]triazolo[4,3-b]pyridazin-6-yl)-N-(tetrahydropyran-3-ylmethyl)-7,8-dihydro-5H-1,6-naphthyridine-3-carboxamide]",75%,
"Cc1c(N2CCc3ncc(C(=O)N4CC(F)C4)cc3C2)nn2cnnc2c1C [Compound 117, [6-(7,8-dimethyl-[1,2,4]triazolo[4,3-b]pyridazin-6-yl)-7,8-dihydro-5H-1,6-naphthyridin-3-yl]-(3-fluoroazetidin-1-yl)methanone]",67%,

# Source: patent US20250002507A1, “7,8-DIHYDRO-5H-1,6-NAPHTHYRIDINE DERIVATIVES AS POSITIVE ALLOSTERIC MODULATORS OF THE MUSCARINIC ACETYLCHOLINE RECEPTOR M4 FOR TREATING NEUROLOGICAL AND PSYCHIATRIC DISORDERS” (Vanderbilt University, priority 2021, published 2025)
